Assay results from patent US6191138A, “Phenanthridines” (Byk Gulden Lomberg Chemische Fabrik GmbH, priority 1996, dated 2001).

System: PDE IV
Assay: Inhibition of PDE IV Activity (method of Bauer and Schwabe, adapted to microtiter plates)
Type: biochemical

Row | SMILES | -log IC50 (Inhibition of PDE IV Activity)
1 | COC(=O)c1ccc(C2=N[C@H]3CCCC[C@H]3c3cc(OC)c(OC)cc32)cc1 (racemic) [Compound 1, (+/ -)-cis-8,9-dimethoxy-6-[4-(methoxycarbonyl)phenyl]-1,2,3,4,4a,10b-hexahydrophenanthridine] | 7.39
2 | CCOc1cc2c(cc1OCC)[C@@H]1CCCC[C@@H]1N=C2c1ccc(C(=O)OC)cc1 (racemic) [Compound 2, (+/ -)-cis-8,9-diethoxy-6-[4-(methoxycarbonyl)phenyl]-1,2,3,4,4a,10b-hexahydrophenanthridine] | 8.84
3 | COC(=O)c1ccc(C2=N[C@H]3CCCC[C@H]3c3cc(OC(F)F)c(OC)cc32)cc1 (racemic) [Compound 3, (+/ -)-cis-9-difluoromethoxy-8-methoxy-6-[4-(methoxycarbonyl)phenyl]-1,2,3,4,4a ,10b-hexahydrophenanthridine] | 7.73
4 | CCOc1cc2c(cc1OC)C(c1ccc(C(=O)OC)cc1)=N[C@H]1CCCC[C@@H]21 (racemic) [Compound 4, (+/ -)-cis-9-ethoxy-8-methoxy-6-[4-(methoxycarbonyl)phenyl]-1,2,3,4,4a,10b-hexahydrophenanthridine] | 8.73
5 | CCOc1cc2c(cc1OC)[C@@H]1CCCC[C@@H]1N=C2c1ccc(C(=O)OC)cc1 (racemic) [Compound 5, (+/ -)-cis-8-ethoxy-9-methoxy-6-[4-(methoxycarbonyl)phenyl]-1,2,3,4,4a,10b-hexahydrophenanthridine] | 7.02
6 | CCOc1cc2c(cc1OCC)[C@@H]1CCCC[C@@H]1N=C2c1cccc(C(=O)OC)c1 (racemic) [Compound 6, (+/-)-cis-8,9-diethoxy-6-[3-(methoxycarbonyl)phenyl]-1,2,3,4,4a ,10b-hexahydrophenanthridine] | 8.14
7 | CCOc1cc2c(cc1OCC)[C@@H]1CCCC[C@@H]1N=C2c1ccccc1C(=O)OC (racemic) [Compound 7, (+/ -)-cis-8,9-diethoxy-6-[2-(methoxycarbonyl)phenyl]-1,2,3,4,4a,10b-hexahydrophenanthridine] | 6.34
8 | COC(=O)c1ccc(C2=N[C@H]3CCCC[C@@H]3c3cc(OC)c(OC)cc32)cc1 (racemic) [Compound 8, (+/ -)-trans-8,9-dimethoxy-6-[4-(methoxycarbonyl)phenyl]-1,2,3,4,4a,10b-hexahydrophenanthridine] | 5.92
9 | COc1cc2c(cc1OC)[C@@H]1CCCC[C@@H]1N=C2c1ccc(C(=O)OCC2CC2)cc1 (racemic) [Compound 13, (+/ -)-cis-8,9-dimethoxy-6-[4-(cyclopropylmethoxycarbonyl)phenyl]-1,2,3,4,4a ,10b-hexahydrophenanthridine] | 7.39
10 | CCOc1cc2c(cc1OCC)[C@@H]1CCCC[C@@H]1N=C2c1ccc(C(=O)O)cc1.Cl (racemic) [Compound 14, (+/ -)-cis-6-(4-carboxyphenyl)-8,9-diethoxy-1,2,3,4,4a,10b-hexahydrophenanthridine hydrochloride] | 8.27
11 | COc1cc2c(cc1OC)[C@@H]1CCCC[C@@H]1N=C2c1ccc(C(=O)O)cc1.Cl (racemic) [Compound 15, (+/ -)-cis-6-(4-carboxyphenyl)-8,9-dimethoxy-1,2,3,4,4a,10b-hexahydrophenanthridine hydrochloride] | 6.81
12 | CCOc1cc2c(cc1OC)C(c1ccc(C(=O)O)cc1)=N[C@H]1CCCC[C@@H]21.Cl (racemic) [Compound 16, (+/ -)-cis-6-(4-carboxyphenyl)-9-ethoxy-8-methoxy-1,2,3,4,4a,10b-hexahydrophenanthridine hydrochloride] | 8.66
13 | CCOc1cc2c(cc1OC)[C@@H]1CCCC[C@@H]1N=C2c1ccc(C(=O)O)cc1.Cl (racemic) [Compound 17, (+/ -)-cis-6-(4-carboxyphenyl)-8-ethoxy-9-methoxy-1,2,3,4,4a,10b-hexahydrophenanthridine hydrochloride] | 6.79
14 | CCOc1cc2c(cc1OCC)[C@@H]1CCCC[C@@H]1N=C2c1cccc(C(=O)O)c1.Cl (racemic) [Compound 18, (+/ -)-cis-6-(3-carboxyphenyl)-8,9-diethoxy-1,2,3,4,4a,10b-hexahydrophenanthridine hydrochloride] | 7.69
15 | COc1cc2c(cc1OC(F)F)[C@@H]1CCCC[C@@H]1N=C2c1ccc(C(=O)O)cc1.Cl (racemic) [Compound 19, (+/ -)-cis-6-(4-carboxyphenyl)-9-difluoromethoxy-8-methoxy-1,2,3,4,4a,10b-hexahydrophenanthridine hydrochloride] | 7.55
16 | CNC(=O)c1ccc(C2=N[C@H]3CCCC[C@H]3c3cc(OC)c(OC)cc32)cc1 (racemic) [Compound 20, (+/-)-cis-6-[4-(N-methylaminocarbonyl)phenyl]-8,9-dimethoxy-1,2,3,4,4a ,10b-hexahydrophenanthridine] | 5.18
17 | CCOc1cc2c(cc1OCC)[C@@H]1CCCC[C@@H]1N=C2c1ccc(C(=O)OC)cc1 (single isomer, unassigned) [Compound 9, (-)-cis-8,9-diethoxy-6-[4-(methoxycarbonyl)phenyl]-1,2,3,4,4a,10b-hexahydrophenanthridine] | 8.52
18 | CCOc1cc2c(cc1OCC)[C@@H]1CCCC[C@@H]1N=C2c1ccc(C(=O)OC)cc1 (single isomer, unassigned) [Compound 10, (+)-cis-8,9-diethoxy-6-[4-(methoxycarbonyl)phenyl]-1,2,3,4,4a,10b-hexahydrophenanthridine] | 7.48
19 | COC(=O)c1ccc(C2=N[C@H]3CCCC[C@H]3c3cc(OC)c(OC)cc32)cc1 (single isomer, unassigned) [Compound 11, (-)-cis-8,9-dimethoxy-6-[4-(methoxycarbonyl)phenyl]-1,2,3,4,4a,10b-hexahydrophenanthridine] | 7.52
20 | COC(=O)c1ccc(C2=N[C@H]3CCCC[C@H]3c3cc(OC)c(OC)cc32)cc1 (single isomer, unassigned) [Compound 12, (+)-cis-8,9-dimethoxy-6-[4-(methoxycarbonyl)phenyl]-1,2,3,4,4a,10b-hexahydrophenanthridine] | 4.95
